Assay results reported in ChEMBL document CHEMBL2150933 (J Med Chem, 2012).

Key:
[1] = Toxicity in iv dosed CD1 mouse administered Q2D for 8 days; format: organism-based; conditions: CD1, mouse, in vivo
[2] = Plasma concentration in CD1 mouse at 1 mg/kg, iv administered as single dose measured after 5 mins; format: ADME, organism-based; design: dose 1 mg/kg, route intravenous
[3] = Plasma concentration in CD1 mouse at 1 mg/kg, iv administered as single dose measured after 30 mins; format: ADME, organism-based; design: dose 1 mg/kg, route intravenous
[4] = Plasma concentration in CD1 mouse at 1 mg/kg, iv administered as single dose measured after 120 mins; format: ADME, organism-based; design: dose 1 mg/kg, route intravenous

CO[C@H](C(=O)[C@@H](O)[C@@H](C)O)[C@@H]1Cc2cc3cc(O[C@H]4C[C@@H](O[C@H]5C[C@@H](O)[C@H](O)[C@@H](C)O5)[C@H](O)[C@@H](C)O4)c(C)c(O)c3c(O)c2C(=O)[C@H]1O[C@H]1C[C@@H](O[C@H]2C[C@@H](O[C@H]3C[C@](C)(O)[C@H](O)[C@@H](C)O3)[C@@H](O)[C@@H](C)O2)[C@H](O)[C@@H](C)O1 [PLICAMYCIN]
MTD at 192 h [1]: 0.6 mg/kg | concentration at 5 min [2]: 2700 nM | concentration at 0.5 h [3]: 200 nM | concentration at 2 h [4]: < 100 nM
